Test results published in US20040063721A1, “Agonism of the 5HT2A receptor for treatment of thermoregulatory dysfunction” (Wyeth, priority 2002, published 2004).
Entries after “also recorded” stand apart in the source; their conditions may differ.

System: morphine-dependent rat model of vasomotor instability
Assay: Morphine-dependent naloxone-induced flush model (tail skin temperature)
Type: in vivo
Conditions: for effect on basal tail skin temperature prior to administration of naloxone: ovariectomized morphine-dependent rats, MDL-100907 0.3, 1 mg/kg, DOI 1 mg/kg, FIG. 1
[1] = Example 2, sc 20 min prior to naloxone, 5HT2c agonist 0.1, 3.0 mg/kg, 5HT2c antagonist 0.1, 1.0 mg/kg, FIG. 2
[2] = Example 1, sc 20 min prior to naloxone
[3] = Example 3, fluoxetine 10 mg/kg sc 1 h prior and/or WAY-100635 1 mg/kg sc 20 min prior to naloxone, FIG. 3

Cc1cc2c(cc1Cl)N(C(=O)Nc1ccc(Oc3cccnc3C)nc1)CC2 [6-Chloro-5-methyl-1-[[2-[(2-methyl3-pyridyl)oxy]-5-pyridyl]carbamoyl]indoline]
abatement of naloxone-induced flush (changes in TST, Δ°C, mean, over time) [1]: did not significantly abate naloxone-induced flush

c1cc2c3c(c1)[C@H]1CCC[C@H]1N3CCNC2 [(7bR, 10aR)-1,2,3,4,8,9,10,10a-octahydro-7bH-cyclopenta[b][1,4]diazepino[6,7,1-hi]indole]
abatement of naloxone-induced flush (changes in TST, Δ°C, mean, over time) [1]: did not significantly abate naloxone-induced flush

COc1cc(CC(C)N)c(OC)cc1I.Cl (stereo not shown) [DOI, 1-(2,5-dimethoxy-4-iodophenyl)-2-aminopropane hydrochloride]
abatement of naloxone-induced flush (change in TST) (Example 1, DOI 1 mg/kg sc 20 min prior to naloxone, FIG. 1B, hydrochloride): preventing a naloxone-induced increase in tail-skin temperature; also recorded: significantly abated the naloxone-induced flush | effect on basal tail skin temperature prior to administration of naloxone [2]: without affecting basal tail skin temperature

COc1cccc([C@H](O)C2CCN(CCc3ccc(F)cc3)CC2)c1OC [MDL-100907]
effect on basal tail skin temperature prior to administration of naloxone [2]: significantly induced an increase in tail skin temperature | effect on the combination drug abatement of the naloxone-induced flush at maximal flush (Example 5, MDL-100907 0.01 or 0.1 mg/kg 55 min prior to naloxone, then fluoxetine 10 mg/kg + WAY-100635 0.01 mg/kg, 15 min post-naloxone, FIG. 5A): dose-dependently reversed | effect on fluoxetine (10 mg/kg) action on naloxone-induced flush at maximal flush (Example 5, MDL-100907 0.01 or 0.1 mg/kg 55 min prior to naloxone, then fluoxetine 10 mg/kg, 15 min post-naloxone, FIG. 5B): potentiated | effect on fluoxetine (30 mg/kg) abatement of naloxone-induced hot flush (Example 5, MDL-100907 0.01 or 0.1 mg/kg prior to fluoxetine 30 mg/kg, FIG. 5C): potentiated the abatement effect

COc1ccccc1N1CCN(CCN(C(=O)C2CCCCC2)c2ccccn2)CC1 [WAY-100635, N-[2-[4-(2-Methoxyphenyl)-1-piperazinyl]ethyl]-N-2-pyridinylcyclohexanecarboxamide]
abatement of naloxone-induced flush (changes in TST, Δ°C, mean, over time) [3]: did not significantly abate naloxone-induced flush | ED50 (Rattus norvegicus, 0.25 h, Example 4, WAY-100635 0.01, 0.1 or 1.0 mg/kg sc combined with fluoxetine 10 mg/kg, 15 min post-naloxone, FIG. 4B, read-out: ED50 value, abatement of naloxone-induced flush at maximal flush): 0.01 ± 0.009 mg/kg

CNCCC(Oc1ccc(C(F)(F)F)cc1)c1ccccc1 (stereo not shown) [fluoxetine]
abatement of naloxone-induced flush (changes in TST, Δ°C, mean, over time) [3]: did not significantly abate naloxone-induced flush | abatement of naloxone-induced flush by fluoxetine alone (Example 5, fluoxetine 10 mg/kg sc): ineffective | abatement of naloxone-induced hot flush by fluoxetine alone (Example 5, fluoxetine 30 mg/kg sc): abates a naloxone-induced hot flush
